Test results as given in patent US20160002643A1, “Compositions And Methods To Enhance Protein Expression” (priority 2014, published 2016).
“Also recorded” adds a separate entry of the source.

Experiments:
[1] = system: EGFP, ER-mCherry or mCherry expression in 293 cells; assay: FACS / fluorescence analysis of co-transfected EGFP and mCherry expression; type: cell-based, human; details: 2.5 ng EGFP expression plasmid
Description: The average mean fluorescence and range of duplicate transfections of 5 μg of pLKO.1c or pLKΔHP plasmids into 293 cells was determined in the presence or absence of the indicated amount of pEGFP vector relative to the pcDNA control. […]
Calcium phosphate transfection of 293 cells was performed in triplicate with 5 μg of the pTRE plasmids and 1 μg of the transactivator as indicated. All cells were incubated with 300 ng/ml DOX at 7 hr post-transfection prior to FACS analysis at 48 hr. The mean and standard deviations of triplicates are reported relative to pTRE3G-BI-mCherry in the absence of transactivator. All values (lanes 2, 3, and 4) were highly statistically significant (p<0.0001) relative to values from lane 1 as was lane 3 relative to 4.
Transfections were performed as in panel B except that samples without the pTRE plasmids were included (pcDNA3). All transfections contained 2.5 ng of the EGFP expression plasmid. Without the transactivator, pTRE-Psi-sh elevated GFP expression ˜10-fold compared to pcDNA3 (p<0.0001; lanes 5 and 1) and ˜6-fold compared to pTRE-3G-BI-mCherry (p<0.0001; lanes 5 and 3). […]

[2] = system: induction of co-transfected genes by pLKO.1c; assay: Drug inhibition experiments on pLKO.1c induction of co-transfected genes; type: cell-based; details: p38 inhibitor 10 μM 24 hr; Mnk1 inhibitor 2 nM 40 hr
Description: The Mnk1 inhibitor (Calbiochem) was added at 2 nM for 40 hr, and the p38 inhibitor (SB203580) was added at 10 μM for 24 hr prior to harvesting transfections.

| Compound | super-induction of co-transfected GFP/EGFP (in words) [1] | effect of inhibitor on induction of co-transfected genes by pLKO.1c [2] |
| --- | --- | --- |
| pMT2: adenoviral gene containing plasmid on a pBR322 backbone expressing Ad VA-RNA I, SEQ ID NO:07 | showed super-induction of GFP; also recorded: comparable to super-induction of GFP by pLKO.1e | – |
| Nc1ncnc2n[nH]c(Nc3ccc(F)cc3)c12 [CGP57380] | – | no observable effect |
| C[S+]([O-])c1ccc(-c2nc(-c3ccncc3)c(-c3ccc(F)cc3)[nH]2)cc1 (stereo not drawn) [SB203580] | – | no effect |
